According to patent US8178506B2, “Oligomeric compounds and compositions for use in modulation of small non-coding RNAs” (Regulus Therapeutics Inc., priority 2003, dated 2012):
In the oligonucleotide strings, read from the 5' end, every base follows the letter of its sugar. An asterisk marks phosphorothioate; unmarked linkages are phosphodiester. Other units and linkages are bracketed, terminal groups are in braces. A string of capitals states the bases alone. e = 2'-O-(2-methoxyethyl) (MOE); [5mC] = 5-methylcytosine; d = 2'-deoxy (DNA)

Key:
Format in all cases: cell-based, human
adipocytes = assay: Triglyceride accumulation assay in adipocytes; details: for Triglycerides: differentiating adipocytes day 10 post-induction, 24 hours after treatment
aP2 = aP2 mRNA expression in adipocytes (real-time PCR); details: for aP2 mRNA: Table 75
HSL = HSL mRNA expression in adipocytes (real-time PCR)
Glut4 = Glut4 mRNA expression in adipocytes (real-time PCR)
PPARγ = PPARγ mRNA expression in adipocytes (real-time PCR); details: for PPAR-gamma mRNA: differentiating adipocytes day 10 post-induction, 24 hours after treatment
[1] = Table 17, differentiating adipocytes, control = treatment with ISIS 342673
[2] = Table 18, differentiating adipocytes, control = treatment with ISIS 342673
[3] = 50 nM, differentiating adipocytes day 10 post-induction, 24 hours after treatment
[4] = 100 nM, differentiating adipocytes day 10 post-induction, 24 hours after treatment
[5] = 200 nM, differentiating adipocytes day 10 post-induction, 24 hours after treatment
[6] = 300 nM, differentiating adipocytes day 10 post-induction, 24 hours after treatment
[7] = differentiating adipocytes transfected with oligomeric compound
[8] = differentiating adipocytes transfected with oligomeric compound, Table 75
[9] = Table 20, adipocyte differentiation assay as in Example 13

| Substance | TG (triglyceride accumulation) (adipocytes; [1]) | TG (triglyceride accumulation) (adipocytes; [2]) | AP2 mRNA (aP2; [1]) | AP2 mRNA (aP2; [2]) | HSL mRNA (HSL; [1]) | HSL mRNA (HSL; [2]) | GLUT4 mRNA (Glut4; [1]) | GLUT4 mRNA (Glut4; [2]) | PPAR gamma mRNA (PPARγ; [1]) | PPAR gamma mRNA (PPARγ; [2]) | TG (triglyceride accumulation) (adipocytes; [8]) | aP2 mRNA (aP2; [7]) | HSL mRNA (HSL; [8]) | GLUT4 mRNA (Glut4; [8]) | PPAR gamma mRNA (PPARγ; [8]) | also measured |
| --- | --- | --- | --- | --- | --- | --- | --- | --- | --- | --- | --- | --- | --- | --- | --- | --- |
| 342673 (antisense eA*eG*eA*e[5mC]*eT*eA*eG*e[5mC]*eG*eG*eT*eA*eT*e[5mC]*eT*eT*eT*eA*eT*e[5mC]*e[5mC]*e[5mC]) [compound 342673] | 100.0 percentage of control | 100 percentage of control | 100.0 percentage of control | 100 percentage of control | 100.0 percentage of control | 100 percentage of control | 100.0 percentage of control | 100 percentage of control | 100.0 percentage of control | 100 percentage of control | – | – | – | – | – | Triglycerides (adipocytes; 50 nM): 94.2 % UTC; Triglycerides (adipocytes; 100 nM): 105.3 % UTC; Triglycerides (adipocytes; 200 nM): 98.3 % UTC; Triglycerides (adipocytes; 300 nM): 108.2 % UTC; AP2 mRNA (aP2; [3]): 82.4 % UTC; AP2 mRNA (aP2; [4]): 90.3 % UTC; AP2 mRNA (aP2; [5]): 81.1 % UTC; AP2 mRNA (aP2; [6]): 70.9 % UTC; HSL mRNA (HSL; [3]): 92.0 % UTC; HSL mRNA (HSL; [4]): 95.6 % UTC; HSL mRNA (HSL; [5]): 97.3 % UTC; HSL mRNA (HSL; [6]): 85.2 % UTC; GLUT4 mRNA (Glut4; [3]): 94.9 % UTC; GLUT4 mRNA (Glut4; [4]): 90.7 % UTC; GLUT4 mRNA (Glut4; [5]): 97.6 % UTC; GLUT4 mRNA (Glut4; [6]): 102.7 % UTC; PPAR-gamma mRNA (PPARγ; 50 nM): 77.5 % UTC; PPAR-gamma mRNA (PPARγ; 100 nM): 89.9 % UTC; PPAR-gamma mRNA (PPARγ; 200 nM): 94.6 % UTC; PPAR-gamma mRNA (PPARγ; 300 nM): 85.8 % UTC |
| 328114 (antisense eA*eA*eT*e[5mC]*eT*e[5mC]*eA*eT*eT*eT*eT*e[5mC]*eA*eT*eA*e[5mC]*eT*eT*eG*e[5mC]*eA) [compound 328114] | – | 117.3 percentage of control | – | 94.4 percentage of control | – | 93.3 percentage of control | – | 114.9 percentage of control | – | 89.3 percentage of control | – | – | – | – | – | TG (triglyceride accumulation) (adipocytes; [7]): 110 percentage of untreated control (UTC); AP2 mRNA (aP2; [7]): 123 percentage of untreated control (UTC); HSL mRNA (HSL; [7]): 134 percentage of untreated control (UTC); GLUT4 mRNA (Glut4; [7]): 116 percentage of untreated control (UTC); PPAR gamma mRNA (PPARγ; [7]): 106 percentage of untreated control (UTC) |
| 328677 (eT*e[5mC]*e[5mC]*eT*eG*dG*dA*dT*dG*dA*dT*dA*dT*d[5mC]*dT*eA*e[5mC]*e[5mC]*eT*e[5mC]; antisense) [compound 328677] | – | – | – | – | – | – | – | – | – | – | – | – | – | – | – | TG (triglyceride accumulation) (adipocytes; [7]): 34 percentage of untreated control (UTC); AP2 mRNA (aP2; [7]): 61 percentage of untreated control (UTC); HSL mRNA (HSL; [7]): 68 percentage of untreated control (UTC); GLUT4 mRNA (Glut4; [7]): 44 percentage of untreated control (UTC); PPAR gamma mRNA (PPARγ; [7]): 89 percentage of untreated control (UTC) |
| 328137 (eG*eT*eA*eA*eG*e[5mC]*eG*e[5mC]*eA*eG*e[5mC]*eT*e[5mC]*e[5mC]*eA*e[5mC]*eA*eG*eG*e[5mC]*eT; anti-miR) [compound 328137] | 83.2 percentage of control | – | 99.6 percentage of control | – | 86.3 percentage of control | – | 88.5 percentage of control | – | 85.7 percentage of control | – | 37 percentage of untreated control (UTC) | 45 percentage of untreated control (UTC) | 25 percentage of untreated control (UTC) | 29 percentage of untreated control (UTC) | 36 percentage of untreated control (UTC) | – |
| 328115 (antisense eA*eG*eA*eA*eG*eG*eT*eG*eG*eG*eG*eA*eG*e[5mC]*eA*eG*e[5mC]*eG*eT*e[5mC]*eA) [compound 328115] | – | 108.7 percentage of control | – | 80.0 percentage of control | – | 89.0 percentage of control | – | 132.0 percentage of control | – | 95.8 percentage of control | 53 percentage of untreated control (UTC) | 74 percentage of untreated control (UTC) | 75 percentage of untreated control (UTC) | 84 percentage of untreated control (UTC) | 80 percentage of untreated control (UTC) | – |
| 327912 (antisense eA*eA*e[5mC]*eT*eA*eT*eA*e[5mC]*eA*eA*eT*e[5mC]*eT*eA*e[5mC]*eT*eA*e[5mC]*e[5mC]*eT*e[5mC]*eA) [compound 327912] | – | 107.4 percentage of control | – | 90.1 percentage of control | – | 90.6 percentage of control | – | 89.0 percentage of control | – | 76.9 percentage of control | 112 percentage of untreated control (UTC) | 101 percentage of untreated control (UTC) | 95 percentage of untreated control (UTC) | 79 percentage of untreated control (UTC) | 78 percentage of untreated control (UTC) | – |
| 328138 (eG*eA*eG*e[5mC]*eT*eG*e[5mC]*eT*e[5mC]*eA*eG*e[5mC]*eT*eG*eG*e[5mC]*e[5mC]*eA*eT*e[5mC]*eA; anti-miR) [compound 328138] | 100.6 percentage of control | – | 85.3 percentage of control | – | 89.8 percentage of control | – | 86.8 percentage of control | – | 83.8 percentage of control | – | 80 percentage of untreated control (UTC) | 52 percentage of untreated control (UTC) | 56 percentage of untreated control (UTC) | 52 percentage of untreated control (UTC) | 63 percentage of untreated control (UTC) | – |
| 340927 (antisense eT*eG*eA*eG*e[5mC]*dT*dA*d[5mC]*dA*dG*dT*dG*d[5mC]*dT*dT*e[5mC]*eA*eT*e[5mC]*eT*e[5mC]*eA) [compound 340927] | – | – | – | – | – | – | – | – | – | – | – | – | – | – | – | TG (adipocytes; [9]): 0.65; AP2 (aP2; [9]): 0.77; HSL (HSL; [9]): 0.73; Glut4 (Glut4; [9]): 0.54; PPAR gamma (PPARγ; [9]): 0.36 |
| 328110 (antisense eG*eA*eT*eA*eA*eA*eG*e[5mC]*e[5mC]*eA*eA*eT*eA*eA*eA*e[5mC]*eT*eG*eT*e[5mC]*eA) [compound 328110] | – | 97.7 percentage of control | – | 93.3 percentage of control | – | 91.0 percentage of control | – | 104.7 percentage of control | – | 91.2 percentage of control | 96 percentage of untreated control (UTC) | 89 percentage of untreated control (UTC) | 84 percentage of untreated control (UTC) | 77 percentage of untreated control (UTC) | 80 percentage of untreated control (UTC) | – |
| 340350 (antisense TGCTCAATAAATACCCGTTGAA; all 2'-MOE, all phosphorothioate, methylation of C not given here) [compound 340350] | – | – | – | – | – | – | – | – | – | – | 38 percentage of untreated control (UTC) | 64 percentage of untreated control (UTC) | 45 percentage of untreated control (UTC) | 53 percentage of untreated control (UTC) | 59 percentage of untreated control (UTC) | – |
| 328685 (e[5mC]*eG*eG*e[5mC]*e[5mC]*dG*dG*dA*dG*d[5mC]*d[5mC]*dA*dT*dA*dG*eA*e[5mC]*eT*e[5mC]*eG; antisense) [compound 328685] | – | – | – | – | – | – | – | – | – | – | – | – | – | – | – | TG (triglyceride accumulation) (adipocytes; [7]): 50 percentage of untreated control (UTC); AP2 mRNA (aP2; [7]): 73 percentage of untreated control (UTC); HSL mRNA (HSL; [7]): 100 percentage of untreated control (UTC); GLUT4 mRNA (Glut4; [7]): 69 percentage of untreated control (UTC); PPAR gamma mRNA (PPARγ; [7]): 91 percentage of untreated control (UTC) |
| 328123 (antisense eT*eT*eA*e[5mC]*eA*eG*eG*eT*eG*e[5mC]*eT*eG*e[5mC]*eA*eA*e[5mC]*eT*eG*eG*eA*eA) [compound 328123] | 120.8 percentage of control | – | 106.7 percentage of control | – | 85.4 percentage of control | – | 162.4 percentage of control | – | 74.7 percentage of control | – | 54 percentage of untreated control (UTC) | 119 percentage of untreated control (UTC) | 91 percentage of untreated control (UTC) | 129 percentage of untreated control (UTC) | 88 percentage of untreated control (UTC) | – |
| 341803 (antisense CCACACACTTCCTTACATTCCA; all 2'-MOE, all phosphorothioate, methylation of C not given here) [compound 341803] | – | 85.9 percentage of control | – | 77.3 percentage of control | – | 75.5 percentage of control | – | 86.8 percentage of control | – | 71.2 percentage of control | – | 85 percentage of untreated control (UTC) | 79 percentage of untreated control (UTC) | 73 percentage of untreated control (UTC) | 68 percentage of untreated control (UTC) | – |
